According to patent US7943586B2, “Antineoplastic agents targeted via glut transporters” (The Trustees of the University of Pennsylvania, priority 2003, dated 2011):
One block for each compound: values may come before it.

Tests used:
[1] = test system: AR42J tumors (pancreatic acinar carcinoma); test: In vivo NIR phased array optical imaging of submerged AR42J tumors in nu/nu mice; parameters: species or system mouse; conditions: 3.5 hours after tail vein injection of 200 μL, tumor 1.5 cm deep
Description: In vivo NIR optical imaging system: To image and localize subsurface fluorochrome labeled tumors, an NLR imaging system utilizing diffusion photons (Patterson, M. S.; Chance, B.; Wilson, B. C., Time resolved reflectance and transmittance for the non-invasive measurement of tissue optical properties. Applied Optics 1989, 28, 2331-2336.
Fishkin, J. B.; Gratton, E., Propagation of photon-density waves in strongly scattering media containing an absorbing seni-infinite plane bounded by a straight edge. Journal of the Optical Society of America A 1993, 10, 127-140.) has been developed. The in vivo fluorescence optical imaging system consists of a pair of laser diodes operating at 780 nm. […]
Intes, X.; Chen, Y.; Li, X. D.; Chance, B., Detection limit enhancement of fluorescent heterogeneities in turbid media by dual-interfering excitation. […] A 3-mm-in-diameter fiber bundle collects the fluorescence signal from the fluorophore taken by in the tumor. […] The fluorescence signal is then detected by the photomultiplier tube (PMT) and demodulated by the 50 MD receiver to obtain the amplitude and phase information. […] (Chen, Y.; Zheng, G.; Zhang, Z. H.; Blessington, D.; Zhang, M.; Li, H.; Iiu, Q.; Zhou, L.; Intes, X.; Achilefu, S.; Chance, B., Metabolism-enhanced tumor localization by fluorescence imaging: in vivo animal studies. Optics Letters 2003, 28, (21), 2070-2072). […]

9L glioma cells = test: Confocal microscopy of uptake and localization in 9L glioma cells, with or without D-glucose; type: cell-based, rat; conditions: for uptake / localization in 9L glioma cells / effect of D-glucose on uptake / localization in 9L glioma cells: 50 μM, 30 min, 37° C.; for effect of D-glucose on uptake / localization in 9L glioma cells: 50 mM D-glucose; for subcellular localization in 9L glioma cells: 100 μM Pyro-2DG with 10 μg/ml Rhodamine-123, 15 min post-incubation
Description: Confocal Microscopic Studies: 9L glioma cells were grown for 5 days in 4-well Lab-Tek chamber slides (Naperville, Ill.). Before the cell experiments, the culture medium was replaced by preincubation medium (medium with 1% (w/v) BSA instead of FBS). The cells were washed three times with preincubation medium (for 15, 15, and 30 min), and cultured in this medium for a further 20 hours. Experiments were started, after two quick washes with preincubation medium, by the addition of preincubation medium containing the indicated amounts of Pyro-2DG and/or D-Glucose. After 30 minutes incubation at 37° C., the cells were washed five times with ice-cold PBS containing 0.8% BSA, two times with PBS alone, and fixed for 20 minutes with 2% formaldehyde in PBS at room temperature. Then the chamber slides were mounted and sealed for confocal microscopic analysis.
9L glioma cells, obtained from Department of Radiation Oncology at University of Pennsylvania, were cultured in Modified Eagle's Medium (NEM) supplemented with 15% newborn calf serum (NCS), 100 U/ml penicillin-streptomycin. Murine melanoma B16 cells, obtained from Dr. Theo van Berkel's laboratory at the University of Leiden, Netherlands, were cultured in Dulbeco's modified Eagle's medium (DMM) supplemented with 10% fetal bovine serum (FBS) and 100 U/n-d penicillin-streptomycin Cells were grown at 37° C. in an atmosphere of 5% CO2 in a humidified incubator. Cells were grown for 5 days in 4-well Lab-Tek chamber slides (Naperville, Ill.) before the experiment. Indicated amounts of NIRF-2DGs with or without D-Glucose and Rbodarninc-123 were incubated with 9L glioma cells/B16 melanoma cells at 37° C. for 30 min after 3 washes with Dulbecco's Phosphate Buffered Saline (D-PBS). After incubation, the cells were washed five times with ice-cold PBS and Fixed for 20 minutes with 2% formaldehyde in PBS at room temperature. Then the chamber slides were mounted and sealed for confocal niicroscopic analysis. Confocal aticroscopic images were obtained with TCS SPII laser scanning confocal microscope (LSCM) (Heidelber, Germany).

[2] = Water solubility / miscibility of Pyro-2DG; type: physicochemical
9L glioma = type: in vivo, rat
Description: Animals: Rat 9L glioma was implanted on the flanks of male Fisher 344 rats (150 -200 g) via subcutaneous injection of 0.1 mL, ˜10^6 9L glioma cells. Within ten days, tumors grew to the desired size of 1 cm in diameter.
After not feeding animals for 24 hours, the rats were anaesthetized via intraperitoneal injection of Ketamine (75 mg/kg) and Xylazine (10 mg/kg). Pyro-2DG (2 mL, concentration: 0.25 mg/mL) was injected via tail vein infusion over a period of 1 hour (dose: 2.5 mg/kg). Thirty minutes later, the rats were anesthetized again and subjected to PDT.
PDT Protocol: A “point treatment” protocol was designed for evaluating PDT response of Pyro-2DG. PDT was carried out using a KTP YAG pumped dye module (Laserscope, San Jose, Calif.) tuned to produce 670 nm light. Light delivery was through a 1 mm fiber to create a treatment spot of 0.96 mm in diameter when the fiber was held closely adjacent to the tumor. The light field was fixed in position at the center of the tumor by mounting the fiber in the center of a circular plate which was glued to the anesthetized animal. The light was delivered at a fluence rate of 75 mW/cm^2 to a total dose of 175 J/cm^2. Laser power output was measured with a power meter (Coherent, Auburn, Calif.).
Fluorescence Imaging of Tumors (Quistorff, B., Haselgrove, J. C., and Chance, B. (1985) High spatial resolution readout of 3-D metabolic organ structure: an automated, low-temperature redox ratio-scanning instrument. Anal. Biochem. 148, 389-400; Gu, Y. Q., Qian, Z. Y., Chen, J. X., Blessington, D., Ramanujam, N., and Chance, B. (2002) High-resolution three-dimensional scanning optical image system for intrinsic and extrinsic contrast agents in tissue. Rev. Sci. Instruments 73, 172-178; Ramanujam, N., Richards-Kortum, R., Thomsen, S., Mahadevan-Jansen, A., Follen M., and Chance B. (2001) Low temperature fluorescence imaging of freeze-trapped human cervical tissues. Opt. Express 8, 335-343): Immediately after PDT, animals were immersed in pre-cooled isopentane (−150° C.) and transferred to liquid nitrogen (−196° C.) 5 minutes later. Tumors were then surgically excised, embedded in a mixture of ethanol-glycerol-water (freeze point: −30° C.), and mounted at low temperature for 3D surface fluorometric scanning. […] The fluorescence signal was automatically digitized and recorded on a PC. The redox ratio of FP/(FP+PN) was calculated with MATLAB.
A “point treatment” protocol for evaluating PDT response of Pyro-2DG was designed. […] Based on the absorption and emission maxima of Pyro-2DG (λex=665 nm; λem=720 nm), the 9L tumor was treated with 670 nm laser light, and a 700 nm long pass filter was incorporated into the 3D fluorescence scanner for collecting the Pyro-2DG fluorescence at 720 nm. […]

[3] = Biodistribution in organs of a normal Fisher 344 rat by Cryo-imager; type: in vivo; conditions: 1 hour after intravenous administration, preliminary
Description: FIG. 9. Pyro-2DG uptake in different organs of a Fisher 344 rat after 1 h tail vein infusion of 2 ml of 2.5 mg/kg Pyro-2DG. Liver (top left), kidney (bottom left), spleen (bottom middle) and brain (bottom right). Images of the frozen liver and of the control liver (no Pyro-2DG), respectively, appear in the top middle and right hand panels.
In order to determine the biodistribution of the Pyro-2DG, a normal Fisher 344 rat was sacrificed and different organs were scanned for Pyro-2DG fluorescence with Cryo-imager 1 hour after Pyro-2DG was intravenously administered.

[4] = after PDT, 670 nm, 75 mW/cm^2, 175 J/cm^2

Compound: CC1(C)C(/C=C/C=C/C=C/C=C2\N(CCCCS(=O)(=O)O)c3ccc4ccccc4c3C2(C)C)=[N+](CCCCS(=O)(=O)[O-])c2ccc3ccccc3c21 [ICG, Indocyanine Green, reference compound]
- enhancement of the tumor region [1]: no significant enhancement

Compound: pyropheophorbide a [reference compound]
- uptake / localization in 9L glioma cells (9L glioma cells): concentration dependent
- effect of D-glucose on uptake / localization in 9L glioma cells (9L glioma cells): not inhibited by D-glucose

Compound: Rhodamine 123 [Rhodamine-123, reference compound]
- subcellular localization in 9L glioma cells (9L glioma cells): localize in mitochondria

Compound: 2-deoxyglucose conjugate of Bacteriopurpurin-18-N-3′-(isothiocyanate)-propylimide [BChlPP-2DG]
- enhancement of the tumor region [1]: enhanced

- miscibility with water ([2]; formulation with detergent (1% Tween 80)): completely miscible with water
- water solubility ([2]; without detergent): only partially water-soluble
- accumulation in liver [3]: accumulated predominantly in liver
- accumulation in spleen and kidney [3]: lesser accumulation in spleen and kidney
- crossing of the blood-brain barrier [3]: does not cross the blood-brain barrier
Compound: Pyropheophorbide-2-deoxyglucosamide [Pyro-2DG]
- uptake / localization in 9L glioma cells (9L glioma cells): localizes within 9L glioma cells
- effect of D-glucose on uptake / localization in 9L glioma cells (9L glioma cells): competitively inhibited by D-glucose
- subcellular localization in 9L glioma cells (9L glioma cells): localize in mitochondria
- NADH fluorescence of irradiated spot (9L glioma; [4]): significant decrease
- PP fluorescence of irradiated spot (9L glioma; [4]): marked increase
- redox ratio of the tumor FP/(FP+PN) (9L glioma; after PDT, irradiated region): dramatic increase
- effect on mitochondrial activities (redox state) of the tumor (9L glioma; rat, in vivo): no effect on the mitochondrial activities of the tumor
